Laboratory results: article PMC9558510 (Cancers, 2022)
Each block holds one compound with its values, some of them ahead of it.

Tests used:
[1] = parameters: method as in PMID 33846903; settings: cited from earlier work
[2] = parameters: method as in PMID 24408395; settings: cited from earlier work
[3] = Adverse events (CTCAE v5.0), dose reductions and treatment discontinuations; format: in vivo, human; settings: for patients with dose reduction of the named drug due to AE during the study period: 27 patients
Description: AE was routinely assessed by the treating physicians at each serum sampling time point and graded according to the […] (CTCAE) Version 5.0 [35]. Additionally, permanent and temporary treatment discontinuations, dose reductions, and corresponding reasons were documented. Further recorded patient data included age, sex, height, weight, smoking status, dosing regimen, co-medication, and relevant laboratory parameters if ordered by the treating physician (platelet count, white blood cell count, absolute neutrophil count, absolute lymphocyte count, hemoglobin, bilirubin, aspartate and alanine aminotransferase, alkaline phosphatase, gamma-glutamyl transferase, amylase, lipase, creatine kinase, phosphate, sodium, glucose, serum creatinine, and estimated glomerular filtration rate). The treatment and frequency of visits were managed by the treating physicians without knowing the measured drug concentrations. AE was not assessed simultaneously with the collection of VAMS samples.

[4] = popPK model-informed VAMS-to-serum conversion model (self-sampled capillary blood); format: in vivo, human; settings: for Ind V1/F / Ind CL/F / Ind Q/F: at-home VAMS; for Ind Kbp: MAP estimate from at least one paired sample
Method: In addition to serum sampling, patients were asked to participate in the sampling of capillary blood in the clinic and at home. Micro-sampling was not obligatory for enrollment in the study. Micro-sampling was performed from a finger by drawing 20 µL of capillary blood onto the VAMS device MITRA® purchased from Neoteryx (Torrance, CA, USA). During outpatient visits, micro-sampling was conducted by medical staff in parallel to serum sampling. A maximum of six corresponding serum/VAMS samples were collected per patient. Additionally, patients were asked to perform at-home sampling after being instructed by trained staff. For each at-home sampling occasion, patients received a set including four VAMS devices. Patients were instructed to perform sampling at four different time points during the following four time slots: 9 a.m.–12 p.m., 12–3 p.m., 3–6 p.m., and 6–9 p.m. […] Samples collected during different time slots were still accepted. The time of last drug administration and sampling times were self-documented on a specific form. No special storage conditions were specified, and patients were asked to keep samples at ambient temperature until shipment. Samples were sent to the laboratory in an airtight and opaque bag containing desiccant for analysis. At-home samples were collected at up to four occasions per patient. Hematocrit was documented from the results of routine blood withdrawal for VAMS samples collected during outpatient visits. For at-home samples, the last known hematocrit was used. […]
The conversion was based on a hematocrit-dependent formula (Figure 1). […] As proposed by Iacuzzi et al., the blood cell to plasma partition coefficient (Kbp) and intraindividual variability (IIV) were included in the conversion model and estimated from the consolidated data (Figure 1). For this purpose and to evaluate the conversion models, all the serum (Supplementary Table S1) and VAMS concentrations (collected at home or in the clinic) (Supplementary Table S2) were consolidated in a single dataset and fitted to the combined model using the EBE in Monolix 2021R1 (Lixoft SAS, Antony, France). Incorrectly sampled VAMS were removed from the dataset. The resulting individual predicted VAMS concentrations were compared with the observed VAMS concentrations. […] For trametinib, at least one paired sample per patient was included to generate the individual estimate for Kbp. A visual predictive check was performed to evaluate the predictive performance of the method.
Figure 1 Development of the population pharmacokinetic (popPK) model-informed VAMS-to-serum conversion model. PopPK models by Balakirouchenane et al. were used to generate serum maximum a posteriori (MAP) estimates from volumetric absorptive micro-sampling (VAMS) for dabrafenib (A) and trametinib (B).

[5] = Logistic regression of dose reduction/discontinuation vs predicted exposure; format: in vivo, human; settings: for relationship between dose reduction or discontinuation due to AE and predicted serum trough concentrations or AUCτ: logistic regression, standard dosing assumed
Method: Data were collected and processed using Microsoft Excel 2016 Version 16.0 (Microsoft Corporation, Redmond, WA, USA). Statistical calculations and visualization of results were performed with R Studio Version 1.2.5042 (RStudio Incorporation, Boston, MA, USA) running R version 4.0.5 (R Foundation for Statistical Computing, Vienna, Austria, 2020). For further analysis, serum concentrations were divided into groups according to time interval post-dose as follows: 0–5 h, 5–10 h, 10–14 h, and >14 h for (hydroxy-)dabrafenib and 0–10 h, 10–20 h, 20–30 h, and >30 h for trametinib. Concentrations < LLOQ were excluded from further statistical analyses. The concentrations of the same patient at the same dosage and within the same post-dose group were summarized into an individual mean serum concentration for descriptive statistical analysis to account for potential bias caused by the unbalanced number of samples per patient. […] The Wilcoxon […] test was used for unpaired samples. The correlations between individual PK parameters sampled from the conditional distribution during the generation of EBE (methods for estimation see below) and age, sex, body mass index (BMI), and co-medication were analyzed using analysis of variance (ANOVA) and Spearman’s correlation coefficient. Logistic regression was used to compare the risk of treatment discontinuations or dose reductions (dabrafenib dose reduction or discontinuation, trametinib dose reduction or discontinuation, or any dose reduction or discontinuation) with the corresponding predicted trough concentrations and area under the curve of a dosing interval (AUCτ) of dabrafenib, hydroxy-dabrafenib, and trametinib as well as with the composite predicted dabrafenib/hydroxy-dabrafenib trough concentration and with composite dabrafenib/hydroxy-dabrafenib AUCτ assuming standard dosing. The Hosmer–Lemeshow test was used to evaluate the goodness of fit for our logistic regression model. Due to the explorative nature of the study, p-values obtained from multiple comparisons were not corrected for multiple testing. A p-value < 0.05 was considered statistically significant.

[6] = MAP estimate, patient DT002, 2 mg/24 h
[7] = MAP estimate, patient DT010, 2 mg/24 h
[8] = MAP estimate, patient DT014, 2 mg/24 h
[9] = MAP estimate, patient DT018, 1 mg/24 h
[10] = MAP estimate, patient DT019, 1.5 mg/24 h
[11] = MAP estimate, patient DT026, 2 mg/24 h
[12] = MAP estimate, patient DT027, 2 mg/24 h

Ind V1/F ([4]; MAP estimate, patient DT002, 150 mg/12 h): 30.8 L | Ind V1/F ([4]; MAP estimate, patient DT005, 150 mg/12 h): 24.7 L | Ind V1/F ([4]; MAP estimate, patient DT010, 150 mg/12 h): 14.3 L | Ind V1/F ([4]; MAP estimate, patient DT014, 150 mg/12 h): 30.2 L | Ind V1/F ([4]; MAP estimate, patient DT018, 150 mg/12 h): 82.5 L | Ind V1/F ([4]; MAP estimate, patient DT019, 150 mg/12 h): 39.5 L | Ind V1/F ([4]; MAP estimate, patient DT026, 100 mg/12 h): 40.3 L | Ind V1/F ([4]; MAP estimate, patient DT027, 150 mg/12 h): 71.5 L | Ind CL/F ([4]; patient DT002, occasion 1, 150 mg/12 h): 13.5 L/h | Ind CL/F ([4]; patient DT002, occasion 2, 150 mg/12 h): 17.2 L/h | Ind CL/F ([4]; patient DT002, occasion 3, 150 mg/12 h): 21.1 L/h | Ind CL/F ([4]; patient DT005, occasion 1, 150 mg/12 h): 20.7 L/h | Ind CL/F ([4]; patient DT010, occasion 1, 150 mg/12 h): 18.5 L/h | Ind CL/F ([4]; patient DT010, occasion 2, 150 mg/12 h): 33.3 L/h | Ind CL/F ([4]; patient DT010, occasion 3, 150 mg/12 h): 12.1 L/h | Ind CL/F ([4]; patient DT014, occasion 1, 150 mg/12 h): 30.1 L/h | Ind CL/F ([4]; patient DT018, occasion 1, 150 mg/12 h): 24.7 L/h | Ind CL/F ([4]; patient DT018, occasion 2, 150 mg/12 h): 14.9 L/h | Ind CL/F ([4]; patient DT018, occasion 3, 150 mg/12 h): 37.5 L/h | Ind CL/F ([4]; patient DT018, occasion 4, 150 mg/12 h): 32.3 L/h | Ind CL/F ([4]; patient DT019, occasion 1, 150 mg/12 h): 33.1 L/h | Ind CL/F ([4]; patient DT019, occasion 2, 150 mg/12 h): 15.8 L/h | Ind CL/F ([4]; patient DT019, occasion 3, 150 mg/12 h): 9.8 L/h | Ind CL/F ([4]; patient DT019, occasion 4, 150 mg/12 h): 24.2 L/h | Ind CL/F ([4]; patient DT026, occasion 1, 100 mg/12 h): 33.3 L/h | Ind CL/F ([4]; patient DT026, occasion 2, 100 mg/12 h): 41.1 L/h | Ind CL/F ([4]; patient DT026, occasion 3, 100 mg/12 h): 38.7 L/h | Ind CL/F ([4]; patient DT027, occasion 1, 150 mg/12 h): 28.6 L/h | Ind CL/F ([4]; patient DT027, occasion 2, 150 mg/12 h): 23.2 L/h | Ind CL/F ([4]; patient DT027, occasion 3, 150 mg/12 h): 36.5 L/h
Structure (SMILES): CC(C)(C)c1nc(-c2cccc(NS(=O)(=O)c3c(F)cccc3F)c2F)c(-c2ccnc(N)n2)s1 [dabrafenib]
protein binding [1]: > 99.5% | CYP3A autoinduction: induction half-life [2]: approximately 67 h | half-life [2]: eight | patients with dose reduction of the named drug due to AE during the study period [3]: 7.4% | dose reduction n (%) ([3]; none): 24 (88.9) n (%) | permanent treatment discontinuation n (%) ([3]; none): 19 (70.4) n (%) | temporary treatment discontinuation n (%) ([3]; none): 17 (63.0) n (%) | permanent treatment discontinuation n (%) ([3]; reason: adverse events): 2 (7.4) n (%) | relationship between dose reduction or discontinuation due to AE and predicted serum trough concentrations or AUCτ [5]: no significant relationships

Ind Kbp ([4]; patient DT002): 4.84 | Ind Kbp ([4]; patient DT010): 4.98 | Ind Kbp ([4]; patient DT014): 5.36 | Ind Kbp ([4]; patient DT018): 3.89 | Ind Kbp ([4]; patient DT019): 3.91 | Ind Kbp ([4]; patient DT026): 4.38 | Ind Kbp ([4]; patient DT027): 4.41 | Ind CL/F [4, 6]: 6.07 L/h | Ind Q/F [4, 6]: 97.65 L/h | Ind CL/F [4, 7]: 6.63 L/h | Ind Q/F [4, 7]: 125.55 L/h | Ind CL/F [4, 8]: 8.36 L/h | Ind Q/F [4, 8]: 129.17 L/h | Ind CL/F [4, 9]: 3.52 L/h | Ind Q/F [4, 9]: 185.04 L/h | Ind CL/F [4, 10]: 3.79 L/h | Ind Q/F [4, 10]: 77.82 L/h | Ind CL/F [4, 11]: 6.25 L/h | Ind Q/F [4, 11]: 106.5 L/h | Ind CL/F [4, 12]: 6.95 L/h | Ind Q/F [4, 12]: 65.04 L/h | population value for Kbp (blood cell to plasma partition coefficient) ([4]; estimated from combined serum and VAMS dataset): 4.62 | IIV of ωKbp ([4]; extended trametinib model): 0.31 | effect of Cmin on probability of dose reduction or treatment discontinuation (logistic regression) ([5]; predicted trough concentration as exposure surrogate, intercept -0.349, p-value 0.0798): 0.06178
Structure (SMILES): CC(=O)Nc1cccc(-n2c(=O)n(C3CC3)c(=O)c3c(Nc4ccc(I)cc4F)n(C)c(=O)c(C)c32)c1 [trametinib]
patients with dose reduction of the named drug due to AE during the study period [3]: 3.7% | patients who discontinued the named drug(s) permanently due to AE ([3]; both drugs, or only trametinib): 3.7% | dose reduction n (%) ([3]; none): 21 (77.8) n (%) | permanent treatment discontinuation n (%) ([3]; none): 18 (66.7) n (%) | temporary treatment discontinuation n (%) ([3]; none): 17 (63.0) n (%) | permanent treatment discontinuation n (%) ([3]; reason: adverse events): 3 (11.1) n (%) | relationship between dose reduction or discontinuation due to AE and predicted serum trough concentrations or AUCτ [5]: no significant relationships
